In PubChem BioAssay AID330 (DTP/NCI, 2004):
Values joined by “and” are separate entries in the source; they are usually repeats but may differ in a detail not shown here. Equal entries are not always repeated. Toxic doses and inconclusive results are not listed. The calls were made as follows: active = survival T/C of 150% or more; inactive = T/C below 125% in these data. Square brackets hold non-standard residues; d marks the D form. Peptide text beside a SMILES is read from it. ξ: configuration not given here. ξhCys = NC(CCS)C(=O)O

Tested on: P388 leukemia ip, CD2F1 mice, survival T/C
Assay: NCI In Vivo Anticancer Drug Screen. Data for tumor model P388 Leukemia (intraperitoneal) in CD2F1 (CDF1) mice
Settings: endpoint: median survival time, higher = longer survival
Outline: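 Mice carrying the transplanted tumor received test compound or vehicle. Survival was recorded in each group, and the value is the treated-group measurement divided by that of the vehicle-treated control group.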

[1] = dose: 6.25 mg/kg/injection, schedule: Q01DX009 (ip), vehicle: saline with Tween-80
[2] = dose: 12.5 mg/kg/injection, schedule: Q01DX009 (ip), vehicle: saline with Tween-80
[3] = dose: 25.0 mg/kg/injection, schedule: Q01DX009 (ip), vehicle: saline with Tween-80
[4] = dose: 50.0 mg/kg/injection, schedule: Q01DX005 (ip), vehicle: saline
[5] = dose: 50.0 mg/kg/injection, schedule: Q01DX009 (ip), vehicle: saline with Tween-80
[6] = dose: 100.0 mg/kg/injection, schedule: Q01DX005 (ip), vehicle: saline
[7] = dose: 12.5 mg/kg/injection, schedule: Q01DX009 (ip), vehicle: Klucel (hydroxypropylcellulose) (HPC)
[8] = dose: 25.0 mg/kg/injection, schedule: Q01DX009 (ip), vehicle: Klucel (hydroxypropylcellulose) (HPC)
[9] = dose: 50.0 mg/kg/injection, schedule: Q01DX009 (ip), vehicle: Klucel (hydroxypropylcellulose) (HPC)
[10] = dose: 50.0 mg/kg/injection, schedule: Q01DX009 (ip), vehicle: saline
[11] = dose: 100.0 mg/kg/injection, schedule: Q01DX009 (ip), vehicle: saline with Tween-80
[12] = dose: 100.0 mg/kg/injection, schedule: Q01DX009 (ip), vehicle: saline
[13] = dose: 200.0 mg/kg/injection, schedule: Q01DX009 (ip), vehicle: saline with Tween-80
[14] = dose: 200.0 mg/kg/injection, schedule: Q01DX009 (ip), vehicle: saline
[15] = dose: 50.0 mg/kg/injection, schedule: Q01DX005 (ip), vehicle: saline with Tween-80
[16] = dose: 100.0 mg/kg/injection, schedule: Q01DX005 (ip), vehicle: saline with Tween-80
[17] = dose: 200.0 mg/kg/injection, schedule: Q01DX005 (ip), vehicle: saline with Tween-80
[18] = dose: 60.0 mg/kg/injection, schedule: Q01DX005 (ip), vehicle: saline with Tween-80
[19] = dose: 120.0 mg/kg/injection, schedule: Q01DX005 (ip), vehicle: saline with Tween-80
[20] = dose: 240.0 mg/kg/injection, schedule: Q01DX005 (ip), vehicle: saline with Tween-80
[21] = dose: 60.0 mg/kg/injection, schedule: Q01DX005 (ip), vehicle: Klucel (hydroxypropylcellulose) (HPC)
[22] = dose: 120.0 mg/kg/injection, schedule: Q01DX005 (ip), vehicle: Klucel (hydroxypropylcellulose) (HPC)
[23] = dose: 240.0 mg/kg/injection, schedule: Q01DX005 (ip), vehicle: Klucel (hydroxypropylcellulose) (HPC)
[24] = dose: 100.0 mg/kg/injection, schedule: Q01DX001 (ip), vehicle: saline with Tween-80
[25] = dose: 50.0 mg/kg/injection, schedule: Q01DX005 (ip), vehicle: Klucel (hydroxypropylcellulose) (HPC)
[26] = dose: 100.0 mg/kg/injection, schedule: Q01DX005 (ip), vehicle: Klucel (hydroxypropylcellulose) (HPC)

Measured: T/C

CC1CCC2N(C1)CC1C3(O)CC45OC6(O)C(O)CCC4(C)C6CCC5C3(O)CC(O)C1(O)C2(C)O (stereo not drawn)
inactive: dose: 3.12 mg/kg/injection, schedule: Q01DX009 (ip), vehicle: saline with Tween-80 103 % of control | [1] 112 % of control | [2] 98 % of control | dose: 25.0 mg/kg/injection, schedule: Q01DX005 (ip), vehicle: saline 114 % of control | [3] 103 % of control | [4] 109 % of control | [5] 98 % of control | [6] 107 % of control

O=C(O)c1ccc(Cl)c(Cl)c1
inactive: [7] 101 % of control | [8] 110 % of control | [9] 99 % of control | dose: 100.0 mg/kg/injection, schedule: Q01DX009 (ip), vehicle: Klucel (hydroxypropylcellulose) (HPC) 108 % of control

CCOC(=O)C(CNc1ccc(O)cc1)NC(=O)c1ccccc1 (stereo not drawn)
inactive: [10] 101 % of control | [11] 94 % of control | [12] 103 % of control | [13] 94 % of control | [14] 102 % of control | dose: 400.0 mg/kg/injection, schedule: Q01DX009 (ip), vehicle: saline with Tween-80 94 % of control | dose: 400.0 mg/kg/injection, schedule: Q01DX009 (ip), vehicle: saline 101 % of control

O=C(NN1CCCCC1)NN1CCCCC1
inactive: [15] 101 % of control | [16] 100 % of control | [17] 100 % of control

O=C(CBr)c1cc2ccccc2[nH]1
inactive: dose: 100.0 mg/kg/injection, schedule: Q01DX001 (ip), vehicle: saline 110 % of control | dose: 200.0 mg/kg/injection, schedule: Q01DX001 (ip), vehicle: saline 106 % of control | dose: 400.0 mg/kg/injection, schedule: Q01DX001 (ip), vehicle: saline 106 % of control

CC1(O)Cn2c(=O)c3cc4ccccc4cc3c(=O)n2CC1(C)Br (stereo not drawn)
inactive: dose: 50.0 mg/kg/injection, schedule: Q04DX002 (ip), vehicle: DMSO 105 % of control | dose: 100.0 mg/kg/injection, schedule: Q04DX002 (ip), vehicle: DMSO 101 % of control | dose: 200.0 mg/kg/injection, schedule: Q04DX002 (ip), vehicle: DMSO 101 % of control

CSc1c(C)c(C)nn1-c1ccccc1
inactive: [18] 104 % of control | [19] 111 % of control | [20] 104 % of control

NCC(=O)NCC(=O)NC(CCCN=C(N)N)C(=O)O (stereo not drawn)
inactive: [4] 100 % of control | [6] 103 % of control | dose: 200.0 mg/kg/injection, schedule: Q01DX005 (ip), vehicle: saline 99 % of control

O=C1CCCc2[nH]c3ccc(F)cc3c21
inactive: [15] 91 % of control | [16] 90 % of control | [17] 88 % of control

COc1ccc2c(c1)N(CCC1CCCCN1C)c1ccccc1S2 (stereo not drawn)
inactive: dose: 12.5 mg/kg/injection, schedule: Q04DX003 (ip), vehicle: saline 116 % of control | dose: 25.0 mg/kg/injection, schedule: Q04DX003 (ip), vehicle: saline 115 % of control | dose: 50.0 mg/kg/injection, schedule: Q04DX003 (ip), vehicle: saline 119 % of control

COc1cc(C(=O)c2cc3c(cc2C)OCO3)cc(OC)c1OC
inactive: [8] 109 % of control | [9] 113 % of control

COC(=O)c1cc2cc3c(c(O)c2c(=O)o1)OC1(Cc2c(O)c4c(c(O)c2O1)C(=O)C(OC)CC4=O)CC3O (stereo not drawn)
inactive: [2] 93 % of control | [3] 100 % of control | [5] 116 % of control

N#CCCN(CCC#N)Cc1c(O)c(O)c(CN(CCC#N)CCC#N)c2ccccc12
inactive: [15] 102 % of control and 105 % of control | [16] 115 % of control and 118 % of control | [17] 122 % of control and 124 % of control

CSC(=S)SC(SC)S(C)(=O)=O (stereo not drawn)
inactive: dose: 3.12 mg/kg/injection, schedule: Q01DX009 (ip), vehicle: Klucel (hydroxypropylcellulose) (HPC) 103 % of control | dose: 6.25 mg/kg/injection, schedule: Q01DX009 (ip), vehicle: Klucel (hydroxypropylcellulose) (HPC) 112 % of control | [7] 110 % of control and 117 % of control | [8] 93 % of control

CCCCCCCCCCCCCCCCC[CH2][Sn](=[O])[OH]
inactive: [10] 111 % of control | [12] 113 % of control | [14] 114 % of control

CCOC(=O)C1=C(Nc2ccc(Cl)cc2)C(=O)N(C(C)(C)C)C1
inactive: [18] 111 % of control | [19] 108 % of control | [20] 109 % of control

Cc1ccc(Nc2cccc3c2C(=O)c2cccc(Nc4ccc(C)cc4S(=O)(=O)O)c2C3=O)c(S(=O)(=O)O)c1
inactive: [5] 108 % of control | [11] 100 % of control | [13] 101 % of control

CCN(CC)CC(O)CNc1ncnc(N)c1C(=C(C)C)c1ccc(Cl)cc1 (stereo not drawn)
inactive: [3] 100 % of control | [5] 100 % of control | [11] 90 % of control

CNC(=S)N/N=C1/CCOC(C)/C1=N\NC(=S)NC (stereo not drawn)
inactive: [15] 93 % of control | [16] 95 % of control | [17] 92 % of control

NC1=C(Br)C(=O)C(N)=C(Br)C1=O
inactive: [21] 100 % of control | [22] 97 % of control | [23] 105 % of control

CCOC(=O)C1=C(N)CCC2(C1)c1ccccc1-c1ccccc12
inactive: [24] 97 % of control | dose: 200.0 mg/kg/injection, schedule: Q01DX001 (ip), vehicle: saline with Tween-80 103 % of control | dose: 400.0 mg/kg/injection, schedule: Q01DX001 (ip), vehicle: saline with Tween-80 93 % of control

CC1(C)c2ccccc2C(=O)c2ccccc21
inactive: [15] 103 % of control | [16] 100 % of control | [17] 103 % of control

Cc1cc2c(=O)[nH]cnc2n1C1C(O)CCCC1O (stereo not drawn)
inactive: [25] 106 % of control | [26] 104 % of control | dose: 200.0 mg/kg/injection, schedule: Q01DX005 (ip), vehicle: Klucel (hydroxypropylcellulose) (HPC) 107 % of control

C=CCOc1cc(=O)[nH]c2ccccc12
inactive: [21] 100 % of control | [22] 97 % of control | [23] 91 % of control

CCCCCC(CN1CCOCC1)C(=O)/C=C/c1ccccc1 (stereo not drawn)
inactive: [5] 102 % of control | [11] 102 % of control | [13] 101 % of control

CC1CCCC(C)N1CC#CCNC(=O)C1CCC(=O)N1 (stereo not drawn)
inactive: dose: 25.0 mg/kg/injection, schedule: Q01DX005 (ip), vehicle: Klucel (hydroxypropylcellulose) (HPC) 100 % of control | [25] 102 % of control | [26] 121 % of control

CN(C)c1ccc(/C=[N+](\[O-])C(C)(C)CO)cc1
inactive: [1] 100 % of control | [2] 102 % of control | [3] 100 % of control | [11] 96 % of control | [13] 97 % of control

CCSCCC(NC(=O)CN)C(=O)O (stereo not drawn) (H-Gly-[ξhCys](Et)-OH)
inactive: [10] 112 % of control | [12] 94 % of control

CC(C)NC(=O)c1ccccc1Sc1ccccc1CN(C)C(C)C
inactive: dose: 25.0 mg/kg/injection, schedule: Q01DX001 (ip), vehicle: saline with Tween-80 99 % of control | dose: 50.0 mg/kg/injection, schedule: Q01DX001 (ip), vehicle: saline with Tween-80 95 % of control | [24] 98 % of control and 102 % of control

C/C(=N/NC(N)=O)c1cccc(/C(C)=N/NC(N)=O)n1.[Cl][Zn][Cl]
inactive: dose: 6.25 mg/kg/injection, schedule: Q01DX009 (ip), vehicle: saline 103 % of control | dose: 12.5 mg/kg/injection, schedule: Q01DX009 (ip), vehicle: saline 102 % of control | dose: 25.0 mg/kg/injection, schedule: Q01DX009 (ip), vehicle: saline 105 % of control

C[n+]1cccc(C(=O)OCC(C)(C)N(Cl)Cl)c1
inactive: [10] 109 % of control

CCc1ccc(-c2cc(-c3ccc(CC)cc3)cc(-c3ccc(CC)cc3)c2)cc1
inactive: [18] 100 % of control | [16] 94 % of control | [17] 91 % of control

CC(C(O)c1ccc2cc(Br)c3ccccc3c2c1)N(C)C (stereo not drawn)
inactive: [15] 100 % of control | [16] 91 % of control

CCCCCCCCC#CC(=O)O
inactive: [5] 94 % of control | [11] 95 % of control | [13] 86 % of control

ON(C=Nc1ccccc1)c1ccccc1
inactive: [10] 101 % of control | [12] 101 % of control | [14] 97 % of control
